Assay results from patent EP0048614B1, “1-N-acylated and 1-N-alkylated derivatives of 4-0-substituted -2-deoxystreptamine aminoglycosides” (ELI LILLY AND COMPANY, priority 1980, dated 1982).
Read-outs that look alike come from different tables or passages of the source.

What was measured:
[1] = test system: Staphylococcus aureus 3055; experiment: Subcutaneous therapy of experimental bacterial infection in mice (ED50); format: in vivo; settings: Staphylococcus aureus, 3055, sc, mice challenged with 68.1 LD50's
Experimental: Table II illustrates the effective dose (ED50, the effective dose to protect 50 percent of the test animals) for representative compounds of this invention against an experimental bacterial infection in mice.
The ED50 values were determined as described by W. E. Wick et al., Journal of Bacteriology, 81 [No. 2], 233-235 (1961).

Escherichia coli X563 = experiment: Standard disc-plate method, zone of inhibition against apramycin-resistant strain; format: cell-based; settings: apramycin-resistant E. coli X563, one value for each of two test runs per compound; for Zone of Inhibition (diameter in mm): 15 mcg/disc; for zone of inhibition at 15 µg/disc: Escherichia coli, X563, read-out: Zone of Inhibition (diameter in mm), 15 mcg/disc
From the text: Table III, shown below, illustrates the in vitro activity of 1-N-(S-y-amino-a-hydroxybutyryl)apramycin, 1-N-(RS-y-amino-a-hydroxybutyryl)apramycin, and 1-N-(S-y-amino-a-hydroxybutyryl)nebramine against an apramycin resistant strain of E. coli. The results below were obtained using the standard disc-plate method. The numerical values are the diameters in millimeters of the zones of inhibition observed against this bacterium. Compounds substituted with the y-amino-a-hydroxybutyryl and analogous side chains are useful in treating infections caused by apramycin resistant bacteria such as the one above.
The test organism (E. coli X563) used in the experiments summarized in Table III is resistant to apramycin due to a 3-N-acetyltransferase which enzymatically inactivates apramycin.

Proteus inconstans PR33 = experiment: MIC, standard agar dilution test; format: cell-based; settings: Providencia alcalifaciens
From the text: (§1) The antibacterial activity of the deprotected compounds of this invention is illustrated by the following in vitro and in vivo test data obtained with representative compounds. In Table I, the minimum inhibitory concentration (MIC) for representative compounds against a wide range of gram-positive and gram-negative bacteria is presented. The MIC values were obtained by the standard agar dilution test.

[2] = test system: Klebsiella pneumoniae KAE; experiment: MIC, standard agar dilution test; format: cell-based; settings: read-out: Minimum Inhibitory Concentration
From the text: as §1

Escherichia coli TEM = experiment: MIC, standard agar dilution test; format: cell-based; settings: read-out: Minimum Inhibitory Concentration
From the text: as §1

[3] = test system: Pseudomonas aeruginosa X528; experiment: MIC, standard agar dilution test; format: cell-based
From the text: as §1

Shigella sonnei N9 = experiment: MIC, standard agar dilution test; format: cell-based; settings: read-out: Minimum Inhibitory Concentration
From the text: as §1

[4] = test system: Hemophilus influenzae C.L.; experiment: MIC, standard agar dilution test; format: cell-based; settings: Haemophilus influenzae
From the text: as §1

Enterobacter cloacae EB5 = experiment: MIC, standard agar dilution test; format: cell-based
From the text: as §1

[5] = test system: Staphylococcus aureus X400; experiment: MIC, standard agar dilution test; format: cell-based
From the text: as §1

[6] = test system: Pseudomonas aeruginosa X239; experiment: MIC, standard agar dilution test; format: cell-based
From the text: as §1

[7] = test system: Pseudomonas aeruginosa Ps18; experiment: MIC, standard agar dilution test; format: cell-based
From the text: as §1

[8] = test system: Staphylococcus epidermidis EPI1; experiment: MIC, standard agar dilution test; format: cell-based; settings: Staphylococcus epidermidis, EPI1; read-out: Minimum Inhibitory Concentration
From the text: as §1

[9] = test system: Enterobacter cloacae 265A; experiment: MIC, standard agar dilution test; format: cell-based; settings: read-out: Minimum Inhibitory Concentration
From the text: as §1

Serratia marcescens SE3 = experiment: MIC, standard agar dilution test; format: cell-based
From the text: as §1

Proteus rettgeri C24 = experiment: MIC, standard agar dilution test; format: cell-based; settings: Providencia rettgeri
From the text: as §1

[10] = test system: Staphylococcus aureus S13E; experiment: MIC, standard agar dilution test; format: cell-based; settings: read-out: Minimum Inhibitory Concentration
From the text: as §1

[11] = test system: Streptococcus pyogenes C203; experiment: MIC, standard agar dilution test; format: cell-based
From the text: as §1

[12] = test system: Salmonella heidelberg X514; experiment: MIC, standard agar dilution test; format: cell-based; settings: Salmonella enterica
From the text: as §1

Serratia marcescens X99 = experiment: MIC, standard agar dilution test; format: cell-based
From the text: as §1

[13] = test system: Staphylococcus aureus X1.1; experiment: MIC, standard agar dilution test; format: cell-based
From the text: as §1

[14] = test system: Citrobacter freundii CF17; experiment: MIC, standard agar dilution test; format: cell-based
From the text: as §1

Hemophilus influenzae 76 = experiment: MIC, standard agar dilution test; format: cell-based
From the text: as §1

[15] = test system: Salmonella typhimurium 1335; experiment: MIC, standard agar dilution test; format: cell-based; settings: Salmonella enterica, read-out: Minimum Inhibitory Concentration
From the text: as §1

[16] = test system: Streptococcus group D X66; experiment: MIC, standard agar dilution test; format: cell-based
From the text: as §1

Proteus rettgeri PR7 = experiment: MIC, standard agar dilution test; format: cell-based; settings: Providencia rettgeri
From the text: as §1

Escherichia coli N10 = experiment: MIC, standard agar dilution test; format: cell-based; settings: Escherichia coli, N10, Escherichia coli N10; agar dilution; read-out: Minimum Inhibitory Concentration
From the text: as §1

Escherichia coli EC14 = experiment: MIC, standard agar dilution test; format: cell-based; settings: Escherichia coli EC14; agar dilution; read-out: Minimum Inhibitory Concentration
From the text: as §1

[17] = test system: Streptococcus group D 9960; experiment: MIC, standard agar dilution test; format: cell-based
From the text: as §1

[18] = test system: Staphylococcus aureus V41; experiment: MIC, standard agar dilution test; format: cell-based
From the text: as §1

[19] = test system: Enterobacter aerogenes C32; experiment: MIC, standard agar dilution test; format: cell-based; settings: Klebsiella aerogenes
From the text: as §1

[20] = test system: Bordetella bronchiseptica 16; experiment: MIC, standard agar dilution test; format: cell-based
From the text: as §1

[21] = test system: Staphylococcus epidermidis EPI2; experiment: MIC, standard agar dilution test; format: cell-based
From the text: as §1

[22] = test system: Streptococcus pneumoniae Park I; experiment: MIC, standard agar dilution test; format: cell-based; settings: Streptococcus pneumoniae; read-out: Minimum Inhibitory Concentration
From the text: as §1

[23] = test system: Klebsiella pneumoniae X26; experiment: MIC, standard agar dilution test; format: cell-based
From the text: as §1

[24] = test system: Enterobacter aerogenes EB17; experiment: MIC, standard agar dilution test; format: cell-based; settings: Klebsiella aerogenes
From the text: as §1

[25] = test system: Enterobacter aerogenes X68; experiment: MIC, standard agar dilution test; format: cell-based; settings: Klebsiella aerogenes
From the text: as §1

Proteus morganii PR15 = experiment: MIC, standard agar dilution test; format: cell-based; settings: Morganella morganii
From the text: as §1

CNC1C(OC2OC(CO)C(N)C(O)C2O)OC2CC(N)C(OC3C(N)CC(NC(=O)C(O)CCN)C(O)C3O)OC2C1O (stereo not drawn) [Test Compound 1, 1-N-(S-γ-amino-α-hydroxybutyryl)apramycin]
128 µg/mL: MIC ([7]; Pseudomonas aeruginosa, PS18, read-out: Minimum Inhibitory Concentration) | MIC (Proteus morganii PR15; PR15, read-out: Minimum Inhibitory Concentration)
8 µg/mL: MIC (Proteus inconstans PR33; PR33, read-out: Minimum Inhibitory Concentration) | MIC [8] | MIC (Proteus rettgeri C24; C24, read-out: Minimum Inhibitory Concentration) | MIC (Serratia marcescens X99; Serratia marcescens, X99, read-out: Minimum Inhibitory Concentration, Serratia marcescens X99) | MIC ([13]; Staphylococcus aureus, X1.1, read-out: Minimum Inhibitory Concentration) | MIC (Proteus rettgeri PR7; PR7, read-out: Minimum Inhibitory Concentration, Proteus rettgeri PR7) | MIC (Escherichia coli N10) | MIC ([19]; C32, read-out: Minimum Inhibitory Concentration) | MIC ([23]; Klebsiella pneumoniae, X26, read-out: Minimum Inhibitory Concentration) | MIC ([25]; X68, read-out: Minimum Inhibitory Concentration, Enterobacter aerogenes X68)
64 µg/mL: MIC ([3]; Pseudomonas aeruginosa, X528, read-out: Minimum Inhibitory Concentration) | MIC ([6]; Pseudomonas aeruginosa, X239, read-out: Minimum Inhibitory Concentration) | MIC ([11]; Streptococcus pyogenes, C203, read-out: Minimum Inhibitory Concentration) | MIC ([20]; Bordetella bronchiseptica, 16, read-out: Minimum Inhibitory Concentration) | MIC [22]
> 128 µg/mL: MIC ([16]; DX66, read-out: Minimum Inhibitory Concentration) | MIC ([17]; D9960, read-out: Minimum Inhibitory Concentration)
4 µg/mL: MIC (Escherichia coli TEM) | MIC ([21]; Staphylococcus epidermidis, EPI2, read-out: Minimum Inhibitory Concentration)
16 µg/mL: MIC ([2]; Klebsiella pneumoniae) | MIC (Shigella sonnei N9) | MIC ([4]; read-out: Minimum Inhibitory Concentration, Hemophilus influenzae C.L.) | MIC (Enterobacter cloacae EB5; Enterobacter cloacae, EB5, read-out: Minimum Inhibitory Concentration) | MIC (Serratia marcescens SE3; Serratia marcescens, SE3, read-out: Minimum Inhibitory Concentration) | MIC [10] | MIC ([12]; X514, read-out: Minimum Inhibitory Concentration) | MIC ([14]; Citrobacter freundii, CF17, read-out: Minimum Inhibitory Concentration) | MIC (Hemophilus influenzae 76; Haemophilus influenzae, 76, read-out: Minimum Inhibitory Concentration, Hemophilus influenzae 76) | MIC ([15]; TYPHIMURIUM) | MIC (Escherichia coli EC14) | MIC ([18]; Staphylococcus aureus, V41, read-out: Minimum Inhibitory Concentration) | MIC ([24]; EB17, read-out: Minimum Inhibitory Concentration)
32 µg/mL: MIC ([5]; Staphylococcus aureus, X400, read-out: Minimum Inhibitory Concentration, Staphylococcus aureus X400) | MIC ([9]; Enterobacter cloacae, 265A)
< 4.35 mg/kg: ED50 ([1]; read-out: Effective Dose (ED50), mg/kg × 2 subcutaneous doses at 1 and 5 hours post infection)
12.4 mm: zone of inhibition at 15 µg/disc (Escherichia coli X563)
14.7 mm: Zone of Inhibition (diameter in mm) (Escherichia coli X563; listed as 1)

CCNC1CC(N)C(OC2OC3C(CC2N)OC(OC2OC(CO)C(N)C(O)C2O)C(NC)C3O)C(O)C1O (stereo not drawn) [Test Compound 4, 1-N-ethylapramycin]
8 µg/mL: MIC (Escherichia coli TEM) | MIC ([6]; Pseudomonas aeruginosa X239, agar dilution, read-out: Minimum Inhibitory Concentration) | MIC [8] | MIC [10] | MIC ([13]; Staphylococcus aureus X1.1, agar dilution, read-out: Minimum Inhibitory Concentration) | MIC (Proteus rettgeri PR7; Proteus rettgeri PR7, read-out: Minimum Inhibitory Concentration) | MIC ([18]; Staphylococcus aureus V41, agar dilution, read-out: Minimum Inhibitory Concentration) | MIC ([19]; Enterobacter aerogenes C32, agar dilution, read-out: Minimum Inhibitory Concentration) | MIC ([23]; Klebsiella pneumoniae X26, agar dilution, read-out: Minimum Inhibitory Concentration)
32 µg/mL: MIC (Enterobacter cloacae EB5; Enterobacter cloacae EB5, agar dilution, read-out: Minimum Inhibitory Concentration) | MIC ([7]; Pseudomonas aeruginosa Ps18, agar dilution, read-out: Minimum Inhibitory Concentration) | MIC ([9]; Enterobacter cloacae 265A, agar dilution) | MIC ([12]; Salmonella heidelberg X514, agar dilution, read-out: Minimum Inhibitory Concentration) | MIC ([15]; Salmonella typhimurium 1335, agar dilution) | MIC (Escherichia coli EC14) | MIC (Proteus morganii PR15; Proteus morganii PR15, agar dilution, read-out: Minimum Inhibitory Concentration)
4 µg/mL: MIC ([21]; Staphylococcus epidermidis EPI2, agar dilution, read-out: Minimum Inhibitory Concentration)
11.3 mm: zone of inhibition at 15 µg/disc (Escherichia coli X563)
16 µg/mL: MIC ([2]; Klebsiella pneumoniae KAE, agar dilution) | MIC ([3]; Pseudomonas aeruginosa X528, agar dilution, read-out: Minimum Inhibitory Concentration) | MIC (Shigella sonnei N9) | MIC ([4]; Hemophilus influenzae C.L., read-out: Minimum Inhibitory Concentration) | MIC ([5]; Staphylococcus aureus X400, read-out: Minimum Inhibitory Concentration) | MIC ([11]; Streptococcus pyogenes C203, agar dilution, read-out: Minimum Inhibitory Concentration) | MIC ([14]; Citrobacter freundii CF17, agar dilution, read-out: Minimum Inhibitory Concentration) | MIC (Hemophilus influenzae 76; Haemophilus influenzae, Hemophilus influenzae 76, read-out: Minimum Inhibitory Concentration) | MIC (Escherichia coli N10) | MIC [22] | MIC ([24]; Enterobacter aerogenes EB17, agar dilution, read-out: Minimum Inhibitory Concentration) | MIC ([25]; Enterobacter aerogenes X68, read-out: Minimum Inhibitory Concentration)
128 µg/mL: MIC (Proteus inconstans PR33; Proteus inconstans PR33, agar dilution, read-out: Minimum Inhibitory Concentration)
12.1 mm: Zone of Inhibition (diameter in mm) (Escherichia coli X563; listed as 5)
> 128 µg/mL: MIC (Serratia marcescens SE3; Serratia marcescens SE3, agar dilution, read-out: Minimum Inhibitory Concentration) | MIC ([16]; DX66, Streptococcus group D X66, agar dilution, read-out: Minimum Inhibitory Concentration) | MIC ([17]; D9960, Streptococcus group D 9960, agar dilution, read-out: Minimum Inhibitory Concentration)
4.5 mg/kg: ED50 ([1]; mg/kg × 2 subcutaneous doses at 1 and 5 hours post infection, read-out: Effective Dose (ED50))
64 µg/mL: MIC (Proteus rettgeri C24; Proteus rettgeri C24, agar dilution, read-out: Minimum Inhibitory Concentration) | MIC (Serratia marcescens X99; Serratia marcescens X99, read-out: Minimum Inhibitory Concentration) | MIC ([20]; Bordetella bronchiseptica 16, agar dilution, read-out: Minimum Inhibitory Concentration)
